From article PMC12291851, “Hydrogen Sulfide (H2S)-Donating Formyl Peptide Receptor 2 (FPR2) Agonists: Design, Synthesis, and Biological Evaluation in Primary Mouse Microglia Culture” (Antioxidants, 2025)

Experiments:
[1] = test system: HepG2 cells; test: Intracellular H2S release with WSP-1 probe; type: cell-based, human; settings: HepG2, tested concentrations 100-300 μM, 60 min
Experimental: All cell culture reagents were purchased from S.I.A.L. S.r.l. (Rome, Italy). WSP-1 (Washington State Probe-1, 3′-methoxy-3-oxo-3H-spiro[isobenzofuran-1,9′-xanthen]-6′-yl 2-(pyridine-2-yl-disulfanyl benzoate), was obtained from Cayman Chemical (Cayman, Ann Arbor, MI, USA). HepG2, human hepatocellular carcinoma cells, was obtained from American Type Culture Collection (ATCC, Bethesda, MD, USA). Human hepatocellular carcinoma cells (HepG2) were cultured in Minimum Essential Eagle’s Medium. This medium was supplemented with 10% (v/v) Fetal Bovine Serum, 1% (v/v) Glutamine and 1% (v/v) Penicillin-Streptomycin, 1% non-essential amino acids. Cells were cultivated at 37 °C with 5% CO2 at saturated humidity.
These experiments were carried out as already described. HepG2 cells were cultured up to about 90% confluence, and 24 h before the experiment cells were seeded into a 96-well flat bottom black plate (50,000 cells per well). After 24 h, the medium was replaced and cells were incubated at 37 °C for 30 min with a 10 mM solution of the fluorescent WSP-1 probe, which is highly sensitive for H2S detection. After incubation, the supernatant was removed and replaced with different concentrations (100, 200, and 300 µM) of the tested compounds dissolved in HBSS buffer. […] ADT 100 µM was used as a slow H2S-donor reference compound. Data were analyzed by one-way ANOVA for repeated measures, followed by post hoc Bonferroni’s multiple comparison test. Results are expressed as mean ± SEM of 3 independent experiments in triplicate. Statistical significance was accepted at a level of p < 0.05.
Next, we assessed the intracellular H2S release of thioureas and thioamides in HepG2 cells. The compounds were tested at different concentrations (100–300 μM) to evaluate if the release was dose-dependent. We also assayed ADT-OH and TIA as reference H2S-donors, and 3a as a negative control. The results were normalized to the fluorescence signal obtained with 100 μM ADT-OH.

[2] = test system: mouse models of autism spectrum disorder; parameters: method as in PMID 35215274; settings: chronic administration; ref [22]; cited from earlier work
[3] = Cell-free MTT-based H2S release assay; type: physicochemical; settings: 24 h incubation in MEM with 10% DMSO
Experimental: Solutions at different concentrations of each compound in 100 µL of serum-free MEM/10% DMSO with 0.5 mg/mL 3-(4,5-dimethylthiazol-2yl)-2,5-diphenyltetrazolium bromide (MTT) were incubated for 5 h or 24 h in a humidified incubator at 37 °C in 5% CO2 atmosphere. The experimental design comprised blank wells containing only medium and MTT, and a H2S calibration curve obtained by incubating nine solutions at decreasing concentrations (100 µM to 0.01 µM) of NaHS in medium and MTT. At the end of incubation time, the supernatant was removed, the […] crystals were dissolved in 100 µL DMSO/EtOH (1:1 v/v), and absorbance values were read using a Victor 3 plate reader (PerkinElmer, Shelton, CT, USA) at 570 nm. H2S values are expressed as mean ± S.E.M. of the results of three independent experiments conducted in triplicate, and were plotted using GraphPad Prism 7.
To decipher such results and considering the redox properties of H2S, we questioned if H2S released by our compounds in the culture media could interfere with the conversion of MTT (3-[4,5-dimethylthiazol-2-yl]-2,5-diphenyl tetrazolium bromide) to formazan, which is usually related to cell viability. Thus, we ran cell-free experiments in which MTT was used as the substrate to capture the reductive action of H2S. We found, in agreement with Gerő et al., that some of our thioureas and thioamides reduced MTT to formazan after 24 h incubation in MEM with 10% DMSO.

[4] = Cell-free H2S release fluorescence assay with probe 9 (7-azido-4-methylcoumarin); type: physicochemical; settings: overall, 24 h and 48 h, PBS/DMSO 10%
Experimental: The H2S release fluorescence assay was carried out in a final volume of 100 μL PBS/DMSO 10% in black 96-well plates. Solutions with decreasing concentrations of each tested compound were prepared in PBS/DMSO 10%. Then, 50 μL of each solution was dispensed in triplicate in each well. Starting from a 10 mM stock solution, a 200 μM solution of probe 9 was prepared and stored in the dark until 50 μL was dispensed in each well. Blank wells containing only the probe at 100 μM in 100 μL of PBS/DMSO 10% are also prepared. A H2S calibration curve was obtained by incubating solutions of NaSH with the probe under the same conditions, although a different plate was used to minimize interferences due to the diffusion of rapidly released H2S. After 24 h and 48 h incubation in a humidified incubator at 37 °C, 5% CO2, fluorescence reads are obtained from each well with a plate reader TECAN M1000 Pro (Tecan, Männedorf, Switzerland), at λex = 350 nm and λem = 440 nm. Each experiment was replicated at least three times. The data were processed using Microsoft Excel (Microsoft, Redmond, WA, USA) and GraphPad Prism 7 (GraphPad Software, La Jolla, CA, USA).
Compound 9 is a turn-on fluorescent probe that features an azido moiety which can be reduced to amine by H2S, leading to the formation of the fluorescent derivative 7-amino-4-methylcoumarin 10 (λex = 350 nm and λem = 440 nm, Scheme 2). We included NaHS in the assay as a positive control and 3a as a negative control.

[5] = test system: HepG2 hepatocarcinoma cells; test: MTT cell viability assay, MTT added directly to treated media; type: cell-based, human; settings: HepG2, highest tested doses 200 and 20 µM, vehicle 5% DMSO
Experimental: The cytotoxicity of our compounds was assessed using the well-established MTT assay. HepG2 hepatocarcinoma cells were cultured in Minimum Essential Medium (MEM) (Euroclone, Pero, Italy), supplemented with 10% fetal bovine serum (Euroclone, Pero, Italy), 100 U/mL penicillin, and 100 µg/mL streptomycin sulfate, at 37 °C in a humidified incubator in 5% CO2 atmosphere. For the MTT assays, these cells were cultured up to about 90% confluence and were then seeded at a concentration of 20,000 cells per well in 96-well plates. After 24 h, the culture medium was replaced with solutions at various concentrations of each compound in MEM/DMSO 5% (v/v). Control wells were incorporated in the experimental design, consisting of vehicle (MEM/DMSO 5%) and pure medium controls.
In the first round of cytotoxicity assays, 0.5 mg/mL MTT was added to each well 2 or 24 h from treatment and left to incubate for 3–5 h. In the second round of cytotoxicity assays, at 2 or 24 h after treatment, treated media were removed, the cells were washed once in PBS, and fresh medium containing 0.5 mg/mL MTT was added to each well and left to incubate for 3–5 h.
Subsequently, the supernatant was removed, and the formazan crystals were dissolved in DMSO/EtOH 1:1 (100 µL/well). Absorbance values were then recorded from each well using a Victor 3 plate reader (PerkinElmer, Shelton, CT, USA) at 570 nm. All presented data were obtained from 3 to 5 experiments performed in triplicate. Cell viability values are expressed as mean ± S.E.M. and were plotted using GraphPad Prism 7.
Next, we assessed H2S release in a biological environment using human hepatocarcinoma HepG2 cells as a model. The intracellular release of H2S was detected with the WSP-1 probe, a turn-on fluorescent probe that selectively and irreversibly reacts with H2S. Considering that a high micromolar concentration of the test compounds is required to obtain a robust fluorescent signal, we first evaluated the compounds’ cytotoxicity after 2 h and 24 h of incubation with the MTT assay in HepG2 cells. […] We accounted for this by adding a vehicle control with 5% DMSO and a control without DMSO to our experimental design.

[6] = test system: LPS-stimulated rat primary microglial cells and mice organotypic hippocampal cultures; settings: LPS stimulation; ref [19],[20]; cited from earlier work
[7] = test system: APP/PS1 mice; parameters: method as in PMID 34468933; settings: in vivo administration, ref [21]; cited from earlier work
[8] = test system: organotypic hippocampal cultures; parameters: method as in PMID 37775304, PMID 37947648; settings: nanomolar doses; ref [24],[25]; cited from earlier work

| SMILES | intracellular H2S release, WSP-1 fluorescence signal vs vehicle [1] | inflammatory markers and social behavior [2] | absorbance signal (MTT reduction to formazan) indicative of H2S release [3] | H2S release detected with probe 9 in aqueous media [4] | mortality compared to vehicle (MTT) [5] [%] | effect on LPS-induced pro- and anti-inflammatory cytokine levels [6] | neuronal survival, microglial cell density and plaque load [7] | protective and anti-inflammatory properties [8] |
| --- | --- | --- | --- | --- | --- | --- | --- | --- |
| N#Cc1ccc(C[C@H](NC(=O)Nc2ccc(F)cc2)C(=O)NCC2(c3ccc(F)c(Cl)c3)CC2)cc1 [3a, (S)-N-[[1-(3-chloro-4-fluorophenyl)cyclopropyl]methyl]-3-(4-cyanophenyl)-2-[3-(4-fluorophenyl)ureido]propenamide, reference compound] | comparable to that of the vehicle | improved inflammatory markers, with a beneficial effect on social behavior | no signal | no response | > 50 | anti-inflammatory properties | improvement of neuronal survival and decreased microglial cell density and plaque load |  |
| N#Cc1ccc(C[C@H](NC(=O)Nc2ccc(F)cc2)C(=O)N2CCc3ccc(F)cc32)cc1 [3c, (S)-1-[3-(4-cyanophenyl)-1-(6-fluoroindolin-1-yl)-1-oxopropan-2-yl]-3-(4-fluorophenyl)urea] |  |  |  |  |  |  |  | beneficial protective and anti-inflammatory properties at nanomolar doses |
